These molecules were tested on M. bovis BCG resistant mutants.
Format: cell-based, Mycobacterium bovis BCG

Structure (SMILES) | viability of M. bovis BCG mutants raised against other IP family members
Cc1ccc2nc(C)c(C(=O)NCc3ccc(Cl)nc3)n2c1 [IP 4, N-((6-Chloropyridin-3-yl)methyl)-2,6-dimethylimidazo[1,2-a]pyridine-3-carboxamide] | viable
Cc1ccc2nc(C)c(C(=O)NCc3ccc(C(F)(F)F)cc3)n2c1 [IP 3, 2,6-Dimethyl-N-(4-(trifluoromethyl)benzyl)imidazo[1,2-a]pyridine-3-carboxamide] | viable
Cc1ccc2nc(C)c(C(=O)NCc3cccs3)n2c1 [IP 1] | viable

— article PMC3534098 (PLoS ONE, 2012)
